± gives the standard deviation of the averaged measurements.
Key:
Assay in all cases: level (log10 ratio to DMSO vehicle control); higher = higher biomarker level / cell amount than vehicle control
Details in all cases: in DMSO
[1] = compound: COC(=O)C(F)(F)C(F)(F)OC(F)(C(F)(F)F)C(F)(F)OC(F)=C(F)F [Methyl perfluoro(3-(1-ethenyloxypropan-2-yloxy)propanoate)]
Method: (§1)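 BioMAP Diversity Plus panel of 12 human primary cell co-culture systems (3C, 4H, LPS, SAg, BT, BF4T, BE3C, CASM3C, HDF3CGF, KF3CT, MyoF, Mphg). Compounds were added 1 h before stimulation and left for 24 h (MyoF 48 h; BT 72 h for soluble read-outs or 6 d for IgG). Biomarkers were read by ELISA, cytotoxicity by SRB, PBMC viability and proliferation by Alamar Blue. Each well value was divided by the mean of 8 DMSO control wells on the same plate and log10 transformed; duplicate blinded samples were tested at 4 concentrations.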

[2] = compound: FC(F)(F)C(F)(F)C(F)(F)C(F)(F)C(F)(F)C(F)(F)C(F)(F)I [1-Iodopentadecafluoroheptane]
Method: as §1

Octafluoroadipamide = compound: NC(=O)C(F)(F)C(F)(F)C(F)(F)C(F)(F)C(N)=O [Octafluoroadipamide]
Method: as §1

Nonafluoropentanamide = compound: NC(=O)C(F)(F)C(F)(F)C(F)(F)C(F)(F)F [Nonafluoropentanamide]
Method: as §1

[3] = compound: O=C(O)C=CC(F)(C(F)(F)F)C(F)(F)F [3-(Perfluoroisopropyl)-2-propenoic acid]
Method: as §1

[4] = compound: O=S(=O)(F)C(F)(F)C(F)(F)C(F)(F)C(F)(F)C(F)(F)C(F)(F)C(F)(F)C(F)(F)F [Perfluorooctanesulfonyl fluoride]
Method: as §1

Hexafluoroamylene glycol = compound: OCC(F)(F)C(F)(F)C(F)(F)CO [Hexafluoroamylene glycol]
Method: as §1

Test System	level (log10) ([1]; 6700 nM)	level (log10) ([1]; 20000 nM)	level (log10) ([2]; 6700 nM)	level (log10) ([2]; 20000 nM)	level (log10) (Octafluoroadipamide; 6700 nM)	level (log10) (Octafluoroadipamide; 20000 nM)	level (log10) (Octafluoroadipamide; 60000 nM)	level (log10) (Nonafluoropentanamide; 6700 nM)	level (log10) (Nonafluoropentanamide; 20000 nM)	level (log10) (Nonafluoropentanamide; 60000 nM)	level (log10) ([3]; 6700 nM)	level (log10) ([3]; 20000 nM)	level (log10) ([3]; 60000 nM)	level (log10) ([4]; 6700 nM)	level (log10) ([4]; 20000 nM)	level (log10) ([4]; 60000 nM)	level (log10) (Hexafluoroamylene glycol; 6700 nM)	level (log10) (Hexafluoroamylene glycol; 20000 nM)	level (log10) (Hexafluoroamylene glycol; 60000 nM)
HDF3CGF:MMP-1	0.0115 ± 0.011	0.02 ± 0.033	-0.0105 ± 0.0021	-0.0285 ± 0.018	0.0035 ± 0.005	0.002 ± 0.011	0.0045 ± 0.012	0.0065 ± 0.0092	0.011 ± 0.0085	0.0085 ± 0.012	0.0005 ± 0.012	0.008 ± 0.011	0.0005 ± 0.0064	0.023 ± 0.03	0.029 ± 0.024	0.006 ± 0.051	0.004 ± 0.0071	-0.0015 ± 0.04	-0.022 ± 0.064
4H:CCL26/Eotaxin-3	-0.001 ± 0.016	-0.0425 ± 0.026	0.0365 ± 0.016	0.032 ± 0.027	0.04 ± 0.038	0.025 ± 0.069	0.012 ± 0.069	-0.0005 ± 0.0035	0.0195 ± 0.00071	0.066 ± 0.017	-0.011 ± 0.0014	-0.011 ± 0.0014	0.016 ± 0.0085	0.001 ± 0.0028	-0.0025 ± 0.00071	0.0005 ± 0.005	0.0655 ± 0.0021	0.0725 ± 0.015	0.0585 ± 0.0064
HDF3CGF:CD106/VCAM-1	-0.133 ± 0.0057	-0.313 ± 0.0099	-0.0165 ± 0.021	-0.046 ± 0.041	-0.0005 ± 0.012	-0.0165 ± 0.035	0.01 ± 0.0099	0.008 ± 0.028	0.0185 ± 0.03	-0.0085 ± 0.037	-0.0265 ± 0.015	-0.019 ± 0.02	-0.025 ± 0.035	-0.011 ± 0.02	-0.071 ± 0.05	-0.083 ± 0.048	0.042 ± 0.083	0.0495 ± 0.08	0.041 ± 0.055
lMphg:SRB	0.0025 ± 0.011	0.0025 ± 0.011	-0.01 ± 0.0014	-0.0015 ± 0.0021	-0.004 ± 0.0014	0 ± 0.0042	0.008 ± 0.017	0.003 ± 0.014	0.003 ± 0.0071	-0.006 ± 0.0042	-0.017 ± 0.0085	-0.012 ± 0.0099	-0.0085 ± 0.012	0.005 ± 0.0099	-0.0085 ± 0.0092	-0.0015 ± 0.0092	0.0055 ± 0.015	0.007 ± 0.02	-0.002
CASM3C:CD87/uPAR	-0.015 ± 0.027	-0.0165 ± 0.026	-0.019 ± 0.031	-0.0195 ± 0.018	-0.023 ± 0.051	-0.0495 ± 0.077	-0.057 ± 0.041	-0.0215 ± 0.013	-0.023 ± 0.0014	0.0025 ± 0.00071	-0.006 ± 0.0057	-0.0135 ± 0.012	-0.015 ± 0.0042	0.0105 ± 0.0035	0.0065 ± 0.005	0.0225 ± 0.012	0.003 ± 0.021	0.0125 ± 0.011	-0.0195 ± 0.035
3C:CD87/uPAR	0.01 ± 0.041	0.031 ± 0.013	-0.0165 ± 0.018	-0.0175 ± 0.0078	0.012 ± 0.011	-0.0005 ± 0.011	-0.0145 ± 0.0092	-0.037 ± 0.0085	-0.018 ± 0.016	-0.0095 ± 0.022	0.025 ± 0.0071	0.033 ± 0.038	0.0465 ± 0.042	-0.0125 ± 0.012	-0.0085 ± 0.012	-0.006 ± 0.0014	-0.0295 ± 0.047	-0.0235 ± 0.039	-0.0075 ± 0.029
4H:CCL2/MCP-1	-0.0055 ± 0.019	0.016 ± 0.064	-0.015 ± 0.033	0.0095 ± 0.037	-0.013 ± 0.0014	-0.023 ± 0.0085	-0.0005 ± 0.019	-0.024 ± 0.017	-0.017	-0.004 ± 0.013	0.008 ± 0.025	-0.0105 ± 0.022	0.0005 ± 0.0064	0	-0.0195 ± 0.0035	-0.0005 ± 0.023	0.0255 ± 0.022	-0.02 ± 0.027	0.009 ± 0.0099
CASM3C:SRB	0.0015 ± 0.0021	0.006 ± 0.0014	-0.0025 ± 0.0092	0.007	0.0075 ± 0.013	0.002 ± 0.013	-0.005 ± 0.0042	0.005 ± 0.0057	0.0025 ± 0.0035	0.0035 ± 0.0035	0.006 ± 0.0042	-0.011 ± 0.0042	-0.003 ± 0.0028	0.002 ± 0.0014	-0.006 ± 0.0071	-0.0015 ± 0.0021	-0.0005 ± 0.013	-0.0085 ± 0.00071	-0.0045 ± 0.0078
3C:Proliferation	-0.056 ± 0.048	-0.111 ± 0.0092	0.0035 ± 0.013	-0.0125 ± 0.0078	-0.0265 ± 0.036	0.0065 ± 0.067	-0.0085 ± 0.063	0.028 ± 0.018	0.016 ± 0.03	-0.0145 ± 0.021	-0.0185 ± 0.09	-0.002 ± 0.037	-0.0145 ± 0.049	0.0125 ± 0.0092	0.0095 ± 0.016	0.0055 ± 0.046	-0.0035 ± 0.028	0.0075 ± 0.067	0.019 ± 0.03
lMphg:M-CSF	-0.0325 ± 0.042	-0.0335 ± 0.035	-0.0015 ± 0.042	0.015 ± 0.0014	-0.017 ± 0.0028	-0.0065 ± 0.0035	0.0045 ± 0.00071	0.004 ± 0.0071	0.004 ± 0.017	0.018 ± 0.0014	-0.0105 ± 0.0064	-0.021 ± 0.014	-0.015 ± 0.025	-0.006 ± 0.03	-0.03 ± 0.016	-0.0335 ± 0.00071	-0.008 ± 0.0057	-0.009 ± 0.0071	0.006 ± 0.0014

Reference: the supplement of paper PMC10331698
